Experimental data from article PMC4876444, “Two-Photon Enzymatic Probes Visualizing Sub-cellular/Deep-brain Caspase Activities in Neurodegenerative Models” (Scientific Reports, 2016).

How the values were obtained:
[1] = system: caspase-3/-7-like activities in brain slices; assay: TPFM of caspase-3 activation in brain slices of ethanol-intoxicated mouse; settings: 200 μM, 3 h prior to C3RA
Method: Figure 4 Imaging endogenous caspase activities in deep tissues. (a) TPFM of caspase-3 activation in brain slices of ethanol-intoxicated 7-day-old C57BL/6 mouse using C3RA (120 μM, 3 h). Top: 3D images of the mouse brain slice taken along the Z-axis from 0 to 160 μm at 10x magnification. Bottom: images taken at a depth of 120 μm at 40x magnification. […]: control slices (saline-treated); panels 2/6/4/8: treated with caspase-3/7 inhibitor I (200 μM, 3 h). Scale bar = 50 μm. (b) RFU readings extracted from (a) (FTPFM, blue bars) versus those from in vitro enzymatic assays using lysates from the same brain slices (RFU, orange bars). The signal from saline controls was set as “0” and that from ethanol-treated samples was set as “1” in RFU quantification. Due to the base-level active caspase-3 in the saline controls, negative readings were shown with inhibitor-treated samples. (c) WB analysis of caspase-3/-1/-8 activation in lysates of the same mouse brain slices shown in (a). (d) Normalized RFU readings from in vitro enzymatic assays using brain lysates (300 μg) of saline/ethanol treated mice after incubation with C1RB/C3RA/C8RA (6 μM) for 1 h at 37 °C.
All two-photon images were taken on a Leica TCS SP5X Confocal Microscope System. […]

HeLa cells = assay: Permeability of free dye and probes in live cells (fluorescence imaging); assay type: cell-based, human; settings: live HeLa cells, probes 24 μM (AAN 5 μM), 1 h, 37 °C, one-photon fluorescence imaging with LysoTracker
Method: Supplementary Figure 5. Detection of caspase activities in live mammalian cells. (a) One-photon images of AAN (5 μM)/probes (24 μM)/DMSO (blank) in live HeLa cells after 1-h incubation together with LysoTracker. (Panels 1-7) bright field; (Panels 8-14) λex = 405 nm, λem = 420-480 nm (indicative of probes, blue); (Panels 15-21) λex = 405 nm, λem = 470-500 nm (indicative of AAN, green); (Panels 22-28) LysoTracker (λex = 543 nm, λem = 560-615 nm, red); (Panels 29-35) merged images of blue/red channels. Scale bar: 20 μm. (b) Bioimaging of NIH/3T3 cells transfected with active caspase-1 (Panels 2/3/5/6; 50 ng)/caspase-3 (Panels 8/9; 15 ng)/caspase-8 (Panels 11/12; 5 ng) with/without inhibitor treatment (Panels 3/6/9/12, 50 μM of Z-VAD-FMK incubated for 1 h before probes were added) as well as control cells (Panels 1/4/7/10, no caspase transfection) by using C1RB (24 μM)/C1FS (12 μM) for caspase-1, C3RA (24 μM) for caspase-3 and C8RA (24 μM) for caspase-8. Cells were co-stained with membrane tracker. (Green) signals from caspase-cleaved probes (λex = 760 nm, λem = 480-550 nm for all probes, except for C1FS with λem = 450-550 nm). (Red) membrane tracker (λex = 650 nm, λem = 655-740 nm). (Inset) bright field. Scale bar = 10 μm. […]
XTT assay. The cytotoxicity of our probes was determined by using the XTT colorimetric cell proliferation kit (Roche) following manufacturer’s guidelines. […]

cell permeability (HeLa cells)	Compound	effect of inhibitor pre-treatment on C3RA fluorescence in brain slices [1]
	COC[C@@H]1CCCN1S(=O)(=O)c1ccc2c(c1)C(=O)C(=O)N2 [caspase-3/7 inhibitor I, reference compound]	completely abolished the fluorescence
diffuse freely	CC(=O)c1ccc2cc(N)ccc2c1 [AAN, 2-acetyl-6-aminonaphthalene, reference compound]	
